The text below walks through data of patent publication EP0220873B1, “Fused bicyclic imides with psychotropic activity” (priority 1985, dated 1987).

The target in assay [1] is T1, limbic D-2 dopamine receptor (Rattus norvegicus, UniProt P61169).
T1 construct: Limbic brain tissue (nucleus accumbens, septal area, olfactory tubercle) is dissected; from tissue; host or cells: rat limbic brain tissue (nucleus accumbens, septal area, olfactory tubercle) homogenate
Kind of assay: biochemical. As to conditions: for Ki: Table 1, 0.3 nM 3H-spiroperidol, rat limbic brain tissue, read-out: Limbic D-2 Binding (KinM); for inhibition at 1 µM: read-out: Limbic D-2 Binding, % inhibition at 1 µM. The class given is binding, rats.

The subject of assay [2] is avoidance responding. As to the kind of experiment: conditioned avoidance (discrete trial) test. The class given is in vivo, Male CD rats. To be noted: Rattus norvegicus, po, read-out: Active at mg/kg (AB50 value). The procedure:
The antipsychotic activity of the compounds of the invention is assessed via the conditioned avoidance (discrete trial) test. This test has excellent clinical correlation for antipsychotic activity.
The test is carried out as follows: Male CD rats (Charles River) maintained at approximately 400-450 gm body weight are used. Rats trained previously are placed in plexiglass experimental chambers equipped with a response lever, house light, and sonalert. A steel grid floor is wired for presentation of electric shock. Each trial consists of a fifteen-second warning tone (conditioned stimulus), continuing for an additional fifteen seconds accompanied by electric shock, (unconditioned stimulus). The rat can terminate a trial at any point by depression of the response lever. As response during the initial fifteen-second warning tone ends the trial before shock delivery and is considered avoidance response, while a response occurring during shock delivery is an escape response. Trials are presented on a variable interval schedule of two minutes. The session consists of sixty trials. Animals are run two to three times weekly with control sessions always preceding a drug run, and with at least one day intervening, compounds are administered i.p. or p.o. at appropriate pre-treatment times to a minimum of five to six rats at each dose level over a range of doses.
(§1) Response counts are summed over all subjects at a given dose. […] This number is expressed as a percentage of the total trials. Control performance is arbitrarily assigned a value of 100% for avoidance and the dose calculated to produce a 50% block in avoidance responding (AB₅₀) is obtained from a dose-effect regression line fitted by the method of least squares. Potential antipsychotic compounds suppress avoidance responding and increase escape responding.

For assay [3], the system named is avoidance responding. As to the kind of experiment: conditioned avoidance (shelf-jump response) test. As to conditions: i.p., active dose. In kind it is in vivo, Male CD rats. The procedure:
Another test designed to determine the potential antipsychotic activity of the compounds of the invention is the conditioned avoidance (shelf-jump response) test.
This test is carried out as follows: Male CD rats (Charles River) maintained at approximately 400-450 gm body weight are used. Previously trained rats are placed in plexiglass experimental chambers divided into two sections; a main chamber (10 1/2" x 6 3/4" x 11 7/8" high) and an elevated chamber or shelf (5 7/8" x 6 7/8" x 5 3/4"). A moveable wall, controlled by a motor, determines whether the rat has access to the shelf at any time during the experiment. The experimental chamber also contains a house light and sonalert. A steel grid floor in the main chamber is wired for presentation of electric shock. Each trial consists of a fifteen-second warning tone (conditioned stimulus), continuing for an additional fifteen seconds accompanied by electric shock, (unconditioned stimulus). A response (jumping onto the exposed shelf of the upper chamber) occurring during the initial fifteen-second warning tone is considered an avoidance response, while a response occurring during shock delivery is considered an escape response. Trials are presented on a fixed interval schedule of one minute. The session consists of thirty-six trials. Animals are run twice weekly with control sessions always preceding a drug run, and with at least one day intervening. Compounds are administered i.p. or p.o. at appropriate pre-treatment times to a minimum of five rats at each dose level over a range of doses.
The following experimental parameters are recorded by computer: (1) the number of avoidance responses, (2) the number of escape responses, and (3) the number of trials in which no response occurred.
as §1

The target of assay [4] is T2, 5-HT-1A serotonin receptor (Rattus norvegicus, UniProt P19327).
T2 construct: Hippocampal tissue is dissected and homogenized on ice; from tissue; host or cells: rat hippocampal membrane homogenate
T2 sequence (P19327 1-422): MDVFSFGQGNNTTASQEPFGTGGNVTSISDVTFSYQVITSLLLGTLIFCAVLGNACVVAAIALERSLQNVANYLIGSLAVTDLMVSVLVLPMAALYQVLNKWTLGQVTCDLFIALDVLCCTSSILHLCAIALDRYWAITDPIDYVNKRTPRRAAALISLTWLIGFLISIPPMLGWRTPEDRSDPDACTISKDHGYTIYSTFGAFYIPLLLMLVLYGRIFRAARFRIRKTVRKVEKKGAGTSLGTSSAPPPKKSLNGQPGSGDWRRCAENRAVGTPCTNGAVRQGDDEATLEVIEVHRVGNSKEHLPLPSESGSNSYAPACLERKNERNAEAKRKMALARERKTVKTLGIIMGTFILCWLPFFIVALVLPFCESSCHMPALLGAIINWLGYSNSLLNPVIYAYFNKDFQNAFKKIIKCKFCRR
As to the kind of experiment: ex vivo inhibition of 5-HT-1A serotonin receptor binding (3H-8-OH-DPAT, hippocampal membranes). Also on record: species or system rats. The procedure: The assay is carried out as follows: Several groups of rats (4 - 6 rats/group) are injected with test compound or the appropriate vehicle. Thirty minutes later, unless otherwise noted, rats are decapitated and their brains removed. Various brain regions are dissected and rapidly frozen and maintained at -70°C until used.
Hippocampal tissue is dissected and homogenized on ice in 40 vols of buffer (50 mM Tris HCl, pH = 7.7) using a Polytron homogenizer at setting 5 for 3 x 15 sec bursts. The homogenate is then centrifuged at 20,000 rpm (RC5-B; 50,000 g) and the supernatant discarded. The pellet is resuspended in 40 vols of the same buffer and incubated at 37°C for 10 minutes to aid in the removal of endogenous serotonin. The homogenate is then centrifuged (as above) and the supernatant discarded. The pellet is then resuspended in 100 vols of buffer B (50 mM Tris HCl, pH = 7.7 containing 0.1% ascorbate, 10 µM pargyline and 4 mM CaCl₂) and sonicated. An aliquot is taken for protein determination by the Lowry method and the remainder stored frozen at -70°C until used.
The homogenate (50 µl; 0.4-0.6 mg protein/sample) is incubated with 100 µl (1.5-1.8 nM) ³H-8-hydroxy-2-(di-n-propylamino)tetraline in a final volume of 2 ml of buffer for 10 minutes at 37°C. At the end of the incubation, 3 ml of cold buffer A are added to each tube, and the contents rapidly filtered through Whatman GF/B glass filters. The filters are then rapidly washed 2 times with 3 ml of the same buffer, placed in scintillation vials, and shaken for 15 minutes with 10 ml of Hydrofluor (National Diagnostics)scintillation cocktail. The vials are then counted in a Packard 460 CD scintillation counter.
Specific binding is calculated for each of the treatment protocols and is defined as total binding less binding in the presence of excess unlabeled serotonin (1 µM). Specific binding obtained in vehicle-treated rats is compared to that obtained in animals receiving a single or various doses of test compound and expressed as percent of control. […] Linear regression analysis then yields a straight line with 95% confidence limits from which an IC₅₀ can be inversely predicted.

Where [5] appears, read: Table 4, 3H-8-OH-DPAT, rat hippocampal tissue, read-out: Inhibition Constant (Ki nm).

Structures can show the parent of a compound that is named as a salt. Where two headings read alike, the source gives them in different places. Marks after values point to notes of the source that are not given here.

T1 sequence (P61169 whole entry): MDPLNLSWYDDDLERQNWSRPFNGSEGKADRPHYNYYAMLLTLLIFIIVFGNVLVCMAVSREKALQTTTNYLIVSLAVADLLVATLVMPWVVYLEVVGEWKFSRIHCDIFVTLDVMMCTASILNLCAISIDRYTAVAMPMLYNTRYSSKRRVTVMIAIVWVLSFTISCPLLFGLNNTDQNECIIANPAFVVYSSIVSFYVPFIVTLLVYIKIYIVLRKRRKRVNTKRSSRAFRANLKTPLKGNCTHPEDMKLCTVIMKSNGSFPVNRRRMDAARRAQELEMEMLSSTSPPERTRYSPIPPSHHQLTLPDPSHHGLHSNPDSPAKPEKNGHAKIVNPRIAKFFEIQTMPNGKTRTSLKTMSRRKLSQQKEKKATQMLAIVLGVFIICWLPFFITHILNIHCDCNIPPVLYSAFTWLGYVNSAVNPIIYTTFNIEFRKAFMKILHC

For `O=C1C2C3C=CC(C4CC34)C2C(=O)N1CCCCN1CCN(c2cncc(Cl)n2)CC1` (centres unmarked) [Example 1, 2-[4-[4-(6-Chloro-2-pyrazinyl)-1-piperazinyl]butyl]hexahydro-4,6-ethenocycloprop[f]isoindole-1,3(2H,3aH)-dione, dihydrochloride, sesquihydrate], the figures for the Ki in assay [1] and in assay [4] (setting [5]) were 690 nM and 162 nM, respectively. Also, in the assay with avoidance responding [2] (footnote 1 = AB50 value), the ED50 is 40 mg/kg. Moreover, the Active at mg/kg with avoidance responding [3] is 40 (i.p.)* mg/kg.

On to `O=C1C2C3C=CC(C4C=CC43)C2C(=O)N1CCCCN1CCN(c2ncccn2)CC1` (centres unmarked) [Example 3, 3a,4,4a,6a,7,7a-Hexahydro-2-[4-[4-(2-pyrimidinyl)-1-piperazinyl]butyl]-4,7-etheno-1H-cyclobut[f]isoindole-1,3(2H)-dione, dihydrochloride, sesquihydrate], for which the Ki in assay [1] is 345 nM; in assay [4] (setting [5]) it was 17 nM. In the assay with avoidance responding [2] (footnote 1 = AB50 value), the ED50 was determined as 13.4 mg/kg. Also, the Active at mg/kg in the assay with avoidance responding [3] is reported as 40 (i.p.) mg/kg.

Turning to `O=C1C2C3CCC(C4CC43)C2C(=O)N1CCCCN1CCN(c2ncccn2)CC1` (centres unmarked) [Example 7, 2-[4-[4-(2-Pyrimidinyl)-1-piperazinyl]butyl]octahydro-4,6-ethanocycloprop[f]isoindole-1,3-(2H, 3aH)-dione, dihydrochloride, dihydrate], the Ki in assay [1] was 140 nM; in assay [4] (setting [5]), 13.9 nM. In the assay with avoidance responding [3], the Active at mg/kg is given as 40 (i.p.) mg/kg.

Consider `O=C1C2C3C=CC(CCCC3)C2C(=O)N1CCCCN1CCN(c2cncc(Cl)n2)CC1` (centres unmarked) [Example 8, 2-[4-[4-(6-Chloro-2-pyrazinyl)-1-piperazinyl]butyl]octahydro-4,9-etheno-1H-cycloocta[c]pyrrole-1,3(2H)-dione, dihydrochloride, sesquihydrate], for which the Ki in assay [1] is 345 nM; in assay [4] (setting [5]), 122 nM. The Active at mg/kg in the assay on avoidance responding [3] is recorded as 40 (i.p.) mg/kg.

Usually inhibition stands for the percentage by which the read-out fell short of the control. On to `O=C1C2C3C=CC(C3)C2C(=O)N1CCCCN1CCN(c2cncc(Cl)n2)CC1` (centres unmarked) [Example 13, 3a,4,7,7a,-Tetrahydro-2-[4-[4-(6-chloro-2-pyrazinyl)-1-piperazinyl]butyl]-4,7-methano-1H-isoindole-1,3(2H)-dione hydrochloride hydrate], for which the results for the inhibition at 1 µM in assay [1] and in assay [4] were 1% and 74%, respectively. The ED50 in the assay on avoidance responding [2] (footnote 1 = AB50 value) was 39.7 mg/kg. Moreover, the Active at mg/kg in the assay on avoidance responding [3] is reported as 40 (i.p.) mg/kg.

On to `O=C1C2C3C=CC(C4CCC34)C2C(=O)N1CCCCN1CCN(c2ncccn2)CC1` (centres unmarked) [Example 16, 2-[4-[4-(2-Pyrimidinyl)-1-piperazinyl]butyl]-octahydro-4,7-etheno-1H-cyclobut[f]isoindole-1,3-(2H)-dione, dihydrochloride, hydrate], for which the Ki in assay [1] came to 85 nM; in assay [4], 1.1 nM. In addition, the ED50 in the assay on avoidance responding [2] (footnote 1 = AB50 value) stood at 47.4 mg/kg. Also, the Active at mg/kg in the assay on avoidance responding [3] is on record as 40 (i.p.) mg/kg.

For the compound `O=C1C2C3C=CC(CCC3)C2C(=O)N1CCCCN1CCN(c2ncccn2)CC1` (centres unmarked) [Example 21, 4,5,6,7,8,8a-Hexahydro-2-[4-[4-(2-pyrimidinyl)-1-piperazinyl]butyl]-4,8-ethenocyclohepta[c]pyrrole-1,3(2H,3aH)-dione, dihydrochloride, hemihydrate], the inhibition at 1 µM in assay [1] was determined as 53%. Moreover, in the assay with avoidance responding [3], the Active at mg/kg is reported as 40 (i.p.) mg/kg. For the same compound, the Ki in assay [4] (setting [5]) was 12 nM.

With `Cl.O.O=C1C2C3C=CC(CCC3)C2C(=O)N1CCCCN1CCN(c2cncc(Cl)n2)CC1` (centres unmarked) [Example 22, 2-[4-[4-(6-Chloro-2-pyrazinyl)-1-piperazinyl]butyl]-4,5,6,7,8,8a-hexahydro-4,8-ethenocyclohepta[c]pyrrole-1,3(2H,3aH)-dione, hydrochloride, hydrate], in assay [1], the inhibition at 1 µM worked out at 43%. Also, the ED50 with avoidance responding [2] worked out at 68.4 mg/kg. Also, the Active at mg/kg with avoidance responding [3] is recorded as 40 (i.p.) mg/kg.

In the case of `O=C1C2C3C=CC(C4C=CC43)C2C(=O)N1CCCCN1CCN(c2cnccn2)CC1` (centres unmarked) [Example 23, 3a,4,4a,6a,7,7a-Hexahydro-2-[4-[4-(2-pyrazinyl)-1-piperazinyl]butyl]-4,7-etheno-1H-cyclobut[f]isoindole-1,3-(2H)-dione, fumarate(1:1)], the figures for the inhibition at 1 µM in assay [1] and in assay [4] were 13% and 46%, respectively. Moreover, the Active at mg/kg in the assay with avoidance responding [3] is 40 (i.p.) mg/kg.

With `O=C1C2C3C=CC(C4CC34)C2C(=O)N1CCCCN1CCN(c2cnccn2)CC1` (centres unmarked) [Example 24, 4,4a,5,5a,6,6a-Hexahydro-2-[4-[4-(2-pyrazinyl)-1-piperazinyl]butyl]-4,6-ethenocycleprop[f]isoindole-1,3-(2H,3aH)-dione, dihydrochloride, hydrate], the inhibition at 1 µM in assay [1] was 38%; in assay [4], 68%. In the assay on avoidance responding [2] (footnote 1 = AB50 value), the ED50 is 49.6 mg/kg. Further, the Active at mg/kg in the assay on avoidance responding [3] is on record as 40 (i.p.) mg/kg.

Consider `O=C1C2C3C=CC(C4CCC34)C2C(=O)N1CCCCN1CCN(c2cnccn2)CC1` (centres unmarked) [Example 27, 3a,4,4a,5,6,6a,7,7a-Octahydro-2-[4-[4-(2-pyrazinyl)-1-piperazinyl]butyl]-4,7-etheno-1H-cyclobut[f]isoindole-1,3(2H)-dione, dihydrochloride, hemihydrate], for which the inhibition at 1 µM in assay [1] is 41%. For the same compound, in the assay with avoidance responding [3], the Active at mg/kg is listed as 40 (i.p.) mg/kg. In addition, the Ki in assay [4] (setting [5]) amounted to 41 nM.
